Assay results taken from US20200009176A1, “TREATMENT OF LEUKEMIA VIA THE ADMINISTRATION OF DOT1L INHIBITOR PINOMETOSTAT” (Epizyme, Inc., priority 2014, published 2020).
Several values for one entry are separate records, joined by “and”; a condition that tells them apart may be missing. Equal entries are not always repeated. Entries after “also recorded” stand apart in the source; their conditions may differ. Where two headings read alike, the source gives them in different places.

Key:
[1] = test system: leukemia cell lines MOLM-13, OCI-AML4, and SKM-1; assay: Growth inhibition assays, pinometostat with RAS pathway inhibitors; assay type: cell-based; conditions: pinometostat 3 μM, 300 nM, 150 nM or 75 nM plus SCH772984, Trametinib or Sorafenib; FIG. 13
Protocol: Growth inhibition assays were performed using leukemia cell lines to determine whether there is any synergy between pinometostat and RAS pathway inhibitors. The leukemia cell lines used were MOLM-13, OCI-AML4, and SKM-1. For these studies, different RAS pathway inhibitors were used, including SCH772984 (e.g., an ERK inhibitor), Trametinib (e.g., a MEK inhibitor), and Sorafenib (e.g., a Raf kinase inhibitor).

DOT1L = DOT1L (Homo sapiens, UniProt Q8TEK3); assay: DOT1L affinity; assay type: binding
Sequence of DOT1L (Q8TEK3 whole entry): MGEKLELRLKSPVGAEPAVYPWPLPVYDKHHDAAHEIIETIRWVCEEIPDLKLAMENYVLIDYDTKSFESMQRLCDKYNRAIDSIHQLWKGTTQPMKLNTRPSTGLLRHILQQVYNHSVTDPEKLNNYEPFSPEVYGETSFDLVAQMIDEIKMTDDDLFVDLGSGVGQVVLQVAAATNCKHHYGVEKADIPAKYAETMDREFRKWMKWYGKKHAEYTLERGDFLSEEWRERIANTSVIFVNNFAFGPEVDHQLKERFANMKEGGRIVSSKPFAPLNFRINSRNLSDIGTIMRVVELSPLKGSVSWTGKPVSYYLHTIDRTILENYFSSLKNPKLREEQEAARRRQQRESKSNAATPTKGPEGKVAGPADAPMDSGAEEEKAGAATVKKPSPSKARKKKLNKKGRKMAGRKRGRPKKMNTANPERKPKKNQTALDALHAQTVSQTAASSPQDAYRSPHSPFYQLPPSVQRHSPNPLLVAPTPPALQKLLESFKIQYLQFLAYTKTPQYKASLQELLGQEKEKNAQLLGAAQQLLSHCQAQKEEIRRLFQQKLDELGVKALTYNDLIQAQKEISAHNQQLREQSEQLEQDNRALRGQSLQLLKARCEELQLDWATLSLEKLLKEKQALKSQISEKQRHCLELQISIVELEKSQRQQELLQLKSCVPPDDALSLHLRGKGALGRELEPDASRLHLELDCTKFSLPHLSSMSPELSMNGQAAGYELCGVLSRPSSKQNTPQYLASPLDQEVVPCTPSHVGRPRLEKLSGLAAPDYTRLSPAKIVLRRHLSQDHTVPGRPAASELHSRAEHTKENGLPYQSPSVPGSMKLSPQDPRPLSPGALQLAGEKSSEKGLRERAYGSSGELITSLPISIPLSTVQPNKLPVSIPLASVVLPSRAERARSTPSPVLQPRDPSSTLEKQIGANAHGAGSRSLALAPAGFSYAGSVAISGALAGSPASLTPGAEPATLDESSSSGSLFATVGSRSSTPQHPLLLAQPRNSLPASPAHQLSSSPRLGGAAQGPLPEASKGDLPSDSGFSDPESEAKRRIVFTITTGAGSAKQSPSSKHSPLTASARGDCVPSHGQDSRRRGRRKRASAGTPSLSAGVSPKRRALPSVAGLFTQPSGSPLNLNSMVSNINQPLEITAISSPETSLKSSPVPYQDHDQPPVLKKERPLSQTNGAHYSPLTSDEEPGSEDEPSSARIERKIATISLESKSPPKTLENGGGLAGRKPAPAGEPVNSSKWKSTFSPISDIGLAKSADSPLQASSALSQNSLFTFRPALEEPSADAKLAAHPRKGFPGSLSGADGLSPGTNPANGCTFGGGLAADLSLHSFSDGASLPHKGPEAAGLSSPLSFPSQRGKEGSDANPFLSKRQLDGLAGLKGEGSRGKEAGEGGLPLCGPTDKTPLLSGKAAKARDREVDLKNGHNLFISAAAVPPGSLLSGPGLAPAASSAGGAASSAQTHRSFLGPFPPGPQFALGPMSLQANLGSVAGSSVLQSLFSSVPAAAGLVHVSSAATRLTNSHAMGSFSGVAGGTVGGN

MLL-rearranged cells = assay: Pre-clinical study with MLL-rearranged and non-MLL rearranged cells (FIG. 3); assay type: cell-based; conditions: MLL-rearranged vs non-MLL rearranged cells
[2] = Adult Phase 1 dose escalation/expansion study: safety and clinical response; assay type: in vivo, human; design: key to clinical response, per patient: ▪: Complete Responder (Patient Nos. 16 and 18); ▴: Biological Effect (Leukocytosis) (Patient Nos. 1, 7, 13, 15, and 17); ●: Non-responder (Patient Nos. 2-6, 8-12, and 14)
From the text: This open label dose escalation/expansion study of pinometostat enrolled patients ≥18 years (yrs) with R/R leukemia (NCT01684150). In the dose-escalation phase, patients with AML, ALL, mixed lineage leukemia (MLL), myelodysplastic syndrome, myeloproliferative neoplasm or chronic myeloid leukemia were eligible. […] Pinometostat was given via continuous intravenous infusion (CIV) for 21 of 28 day cycles in the dose escalation phase and CIV for 28 of 28 day cycles in the expansion phase, until disease progression or unacceptable toxicity. All patients underwent serial collection of PK and peripheral blood mononuclear cells (PBMC) for PD. […] As of Jun. 28, 2015, 49 patients have enrolled in the dose escalation and expansion phases. […] Correlations of transcript abundance and DNA variants detected with categorical (responder=CR or PR [n=3], or no response [n=15]) and continuous response parameters (time on study (“TOS”), mean=59 days: range=8-196 days) were performed.

[3] = test system: H3K79-me2 at MLL-r target genes HOXA9 and MEIS1; assay: Adult Phase 1 study: H3K79-me2 ChIP-Seq in leukemic blasts; assay type: in vivo, human; conditions: 9 patients, 90 mg/m^2 expansion cohort
Protocol: (§1) This open label dose escalation/expansion study of pinometostat enrolled patients ≥18 years (yrs) with R/R leukemia (NCT01684150). In the dose-escalation phase, patients with AML, ALL, mixed lineage leukemia (MLL), myelodysplastic syndrome, myeloproliferative neoplasm or chronic myeloid leukemia were eligible. Eligibility in the two expansion cohorts: 90 mg/m^2 (n=17) and 54 mg/m^2 (n=6), was restricted to patients with MLL-r or MLL-partial tandem duplication (MLL-PTD). Pinometostat was given via continuous intravenous infusion (CIV) for 21 of 28 day cycles in the dose escalation phase and CIV for 28 of 28 day cycles in the expansion phase, until disease progression or unacceptable toxicity. All patients underwent serial collection of PK and peripheral blood mononuclear cells (PBMC) for PD. Leukemic blasts were isolated from PBMCs using flow cytometry and quantified for dimethylation of H3K79 (H3K79-me2) by ChIP-Seq.

[4] = Adult Phase 1 study: pharmacokinetics; assay type: in vivo, human; conditions: adults, CIV
Protocol: as §1

[5] = Pediatric Phase 1 study: safety; assay type: in vivo, human; conditions: children with R/R leukemia
Protocol: (§2) An open label dose escalation study of pinometostat was performed in patients (pts) aged 3 months to 18 […] leukemia (NCT02141828). Pinometostat was administered via continuous intravenous infusion until disease progression or unacceptable toxicity. Patients were assigned to one of two age-based dose escalation […] developed from simulations of pediatric exposures using a previously reported physiologically-based PK (PBPK) model (Waters, 2014). All patients underwent serial collection of PK and peripheral blood mononuclear cells (PBMC) for PD. Leukemic blasts were isolated from PBMCs using flow cytometry and quantified for di-methylation of H3K79 (H3K79-me2) by ChIP-Seq. As of Jun. 28, 2015, 11 patients have enrolled in the dose escalation of the study consisting of 10 patients (6 patients at 70 mg/m^2/day, 4 patients at 90 mg/m^2/day) in the older age cohort (1 to 18 yr) and 1 patient (45 mg/m^2/day) in the younger age cohort (<1 yr).

[6] = test system: H3K79-me2 at MLL-r target genes HOXA9 and MEIS1; assay: Pediatric Phase 1 study: H3K79-me2 ChIP-Seq in leukemic blasts; assay type: in vivo, human; conditions: 2 of 2 pediatric patients analyzed
Protocol: as §2, with “ChIP-Seq.” for “ChIP-Seq. As of Jun. 28, 2015, 11 patients have enrolled in the dose escalation of the study consisting of 10 patients (6 patients at 70 mg/m^2/day, 4 patients at 90 mg/m^2/day) in the older age cohort (1 to 18 yr) and 1 patient (45 mg/m^2/day) in the younger age cohort (<1 yr).”

[7] = Pediatric Phase 1 study: pharmacokinetics; assay type: in vivo, human
Protocol: as §2, with “ChIP-Seq.” for “ChIP-Seq. As of Jun. 28, 2015, 11 patients have enrolled in the dose escalation of the study consisting of 10 patients (6 patients at 70 mg/m^2/day, 4 patients at 90 mg/m^2/day) in the older age cohort (1 to 18 yr) and 1 patient (45 mg/m^2/day) in the younger age cohort (<1 yr).”

[8] = test system: 14 cell lines (MLL-r or MLL-PTD); assay: Cell proliferation in 14 cell lines; assay type: cell-based
Protocol: RNA and DNA were isolated from PBMCs and/or bone marrow collected prior to treatment from 18 patients enrolled in the adult pinometostat Phase 1 study (CT.gov: NCT01684150), at the following doses 24 (n=2), 36 (n=3), 54 (n=6), 80 (n=3) and 90 mg/m^2/day doses (n=4). mRNA transcript abundance was assessed using whole genome RNASeq and DNA variants were determined using a 194 gene panel, MyAML (Genection Inc.). Correlations of transcript abundance and DNA variants detected with categorical (responder=CR or PR [n=3], or no response [n=15]) and continuous response parameters (time on study (“TOS”), mean=59 days: range=8-196 days) were performed. For cell lines, whole genome RNASeq data was generated from 14 cell lines (MLL-r or MLL-PTD) with a range of in vitro sensitivity to pinometostat (cell proliferation IC50 2 nM to >10 μM) and RNA transcripts identified as correlated with IC5o were submitted for pathway analysis.

[9] = test system: MLL-rearranged cells and xenografts; conditions: cited from earlier work
[10] = Stein 2014 ASH abstract 387; cited from earlier work
[11] = 18 adult patients of biomarker analysis
[12] = dose level 24 mg/m^2, listed as pinometostat
[13] = dose level 36 mg/m^2, listed as pinometostat
[14] = dose level 54 mg/m^2, listed as pinometostat
[15] = dose level 90 mg/m^2, listed as pinometostat

SMILES: O=C(Nc1ccc2[nH]nc(-c3ccncc3)c2c1)[C@@H]1CCN(CC(=O)N2CCN(c3ccc(-c4ncccn4)cc3)CC2)C1 [SCH772984, reference compound]
- effect on inhibition of cell growth, combination of RAS pathway inhibitor and pinometostat [1]: synergistic effect

SMILES: CC(C)N(C[C@H]1O[C@@H](n2cnc3c(N)ncnc32)[C@H](O)[C@@H]1O)[C@H]1C[C@@H](CCc2nc3cc(C(C)(C)C)ccc3[nH]2)C1 [Compound A2, (2R,3R,4S,5R)-2-(6-amino-9H-purin-9-yl)-5-((((1r,3S)-3-(2-(5-(tert-butyl)-1H-benzo[d]imidazol-2yl)ethyl)cyclobutyl)(isopropyl)amino)methyl)tetrahydrofuran-3,4-diol]
- affinity for DOT1L (DOT1L): sub-nanomolar
- killing of genetically defined cancer cells (MLL-rearranged cells): selective killing
- time on study (TOS), mean [2, 11]: 59 days
- time on study (TOS), range [2, 11]: 8 to 196 days
- safety profile ([2]; CIV, adults with R/R leukemia): acceptable safety profile
- differentiation effect in patients with MLL-r ([2]; FIG. 8, micrographs of blood and bone marrow): leads to a differentiation effect
- drug-related treatment discontinuations ([2]; adult MLL-r and MLL-PTD, 90 mg/m^2/day uninterrupted, expansion stage): no drug-related treatment discontinuations
- objective response: PR ([2]; adults, 49 patients): 1 pt
- objective response: cytogenetic CR (MLL negative by FISH) ([2]; adults, 49 patients): 1 pt
- objective response: morphologic CR ([2]; adults, 49 patients): 1 pt
- resolution of leukemia cutis ([2]; adults, 49 patients): 3 pts
- patients with leukocytosis or differentiation ([2]; adults, absolute monocyte and neutrophil 50% above baseline and above upper limit of normal): Nine
- Time on Study, per patient [2, 12]: 49 days and 8 days
- clinical response, per patient [2, 12]: ● and ▴
- Time on Study, per patient [2, 13]: 33 days and 65 days and 21 days
- clinical response, per patient [2, 13]: ▴ (2×) and ●
- Time on Study, per patient [2, 14]: 49 days and 110 days and 196 days and 21 days
- clinical response, per patient [2, 14]: ● (2×) and ▪ (2×)
- clinical response, per patient ([2]; dose level 80 mg/m^2): ●
- Time on Study, per patient ([2]; dose level 80 mg/m^2, listed as pinometostat): 41 days and 82 days
- Time on Study, per patient [2, 15]: 31 days and 38 days and 50 days and 86 days and 136 days and 15 days and 28 days
- clinical response, per patient [2, 15]: ● (5×) and ▴ (2×)
- median inhibition of H3K79-me2 methylation at HOXA9 and MEIS1 [3]: 61%
- range of inhibition of H3K79-me2 methylation at HOXA9 and MEIS1 [3]: 13- 91%
- attainment of steady-state plasma concentrations (Css) [4]: Day 1
- dose proportionality of PK [4]: Dose proportional PK
- safety profile [5]: acceptable safety profile
- range of inhibition of H3K79-me2 methylation at HOXA9 and MEIS1 [6]: 44-72%
- Steady-state CSF concentrations ([7]; children): < 2 ng/mL
- Steady-state plasma concentrations (Css) ([7]; children ≥1 yr, 70 and 90 mg/m^2 doses): 800 to 1600 ng/mL
- IC50 ([8]; least sensitive of 14 cell lines, read-out: cell proliferation IC50, upper end of range): > 10000 nM
- IC50 ([8]; most sensitive of 14 cell lines, read-out: cell proliferation IC50, lower end of range): 2 nM
- effect on inhibition of cell growth, combination of RAS pathway inhibitor and pinometostat [1]: synergistic effect; also recorded: synergistic cell killing
- MLL target gene expression [9]: decreased
- histone H3K79 methylation [9]: reduced
- leukemia cell kill ([9]; listed as Pinometostat): induced selective leukemia cell kill
- leukemia cell kill ([9]; listed as pinometostat): selective leukemia cell kill
- clinical activity, preliminary results of the adult trial [10]: complete remissions in a subset of patients

SMILES: CNC(=O)c1cc(Oc2ccc(NC(=O)Nc3ccc(Cl)c(C(F)(F)F)c3)cc2)ccn1 [Sorafenib, reference compound]
- effect on inhibition of cell growth, combination of RAS pathway inhibitor and pinometostat [1]: synergistic effect
